Data reported in patent publication US20090036544A1, “METHODS AND COMPOSITIONS FOR INHIBITING THE PROLIFERATION OF PROSTATE CANCER CELLS” (priority 2001, published 2009).

Legend:
[1] = test system: LNCaP cells; experiment: Cell proliferation assay (MTS) in LNCaP cells; type: cell-based, human; conditions: five days
Procedure: (§1) A human prostate cancer cell line, LNCaP (American Type Culture Collection (ATCC), Manassas, Va.), was grown in RPMI 1640 medium (Mediatech, Herndon, Va.) supplemented with 5% fetal bovine serum (FBS) and 5% CO2 at 37° C. until reaching approximately 50-70% confluence. The media were changed to serum-free RPMI 1640 at 24 hrs prior to performing experiments to deplete undesired steroids. Cells were then treated with 5% charcoal-stripped FBS RPMI 1640 containing POH (all from Sigma (St. Louis, Mo.), dissolved in DMSO) at indicated concentrations with or without 1 nM of mibolerone (Mib) (from New England Nuclear (St. Louis, Mo.), dissolved in ethanol), a non-metabolizable synthetic androgen. Equivalent amounts of solvent were added to control cells.
(§2) LNCaP cells were seeded at 4×10^4/well in 24-well dishes and treated with POH at indicated concentrations in the presence of 1 nM Mib. Five days later, cell proliferation was measured using an MTS assay kit (Promega, Madison, Wis.), and PSA and hK2 levels in spent media were determined by the Tandem-E PSA kit (Hybritech Inc., San Diego, Calif.) or Mayo's hK2 assay (Zhang et al., 1999, Endocrin., 140:1665-71). Protein levels of PSA and hK2 were normalized to the MTS measurements.

[2] = test system: androgen receptor promoter; experiment: Luciferase reporter assay with androgen receptor promoter in LNCaP cells; type: cell-based, human
Source text: (§3) The 6 Kb PSA promoter and the androgen receptor promoter constructs (pGL3 SV40, pGL3 SV40-3 ARE, pGL3 or PSA promoter/pGL3) were described previously (Id). To make an hk2 androgen responsive element (hk2 ARE) construct, a DNA fragment containing three copies of hk2 ARE (5′-[…]-3′ (SEQ ID NO:1)) was synthesized by the Mayo Molecular Core Facility. The synthesized fragment, including SacI and XhoI restriction enzyme sites at the 5′ and 3′-end, respectively, was digested with SacI and XhoI according to manufacturer's instructions and inserted into a pre-cut pGL3-Promoter vector (Promega). The fidelity of this construct was confirmed by DNA sequencing.
(§4) LNCaP cells in duplicate plates were co-transfected with a CMV-β galactosidase (β-gal) expression vector (0.3 μg/plate) and one of the following: a pGL3-Basic luciferase vector (Promega) containing the PSA promoter (nucleotides 1-5836 of GenBank Accession No. U37672), a pGL3-Promoter luciferase vector (Promega) containing three copies of hk2 ARE, a PGL3 vector or PSA promoter/PGL3 vector. Transfections were performed using a liposome method with dimethyldioctadecyl-ammonium bromide (Sigma) and L-lecithin (Sigma) (4:10). Cells were then treated with POH in the presence or absence of 1 nM Mib for 24 hrs. Cell extracts were prepared and used for luciferase and β-gal assays (Promega). […]

[3] = test system: c-jun; experiment: Expression of c-jun protein after POH treatment; type: cell-based; conditions: normalized data, FIG. 6
Procedure: In order to ascertain how androgen receptor function was being inhibited by POH at levels below 1 μM, c-jun was examined. […] The graph depicts the normalized data. This experiment was repeated twice and representative data is shown.

[4] = test system: PSA; experiment: PSA quantification in spent media of LNCaP cells (Tandem-E PSA kit); type: cell-based, human; conditions: 1 nM Mib, five days, normalized to MTS; FIG. 2A
Procedure: as §1, §2

[5] = test system: androgen receptor; experiment: Western blot analysis of androgen receptor protein in LNCaP cells; type: cell-based, human; conditions: POH until a concentration of 1 μM is reached, 1 nM Mib, 24 hrs
Procedure: LNCaP cells were treated with the indicated concentrations of POH in the presence of 1 nM Mib for 24 hrs. Cells were then harvested, and whole-cell lysates and nuclear extracts were prepared as described (Mitchell et al., 1999, Cancer Res., 59:5892-5). Western blot analysis was performed according to the protocol described (Id). A mouse antibody against the human androgen receptor (1:1000 or 1:2000 dilution) (Pharmingen, San Diego, Calif.) or human tubulin (1:10,000 dilution) (Santa Cruz, Santa Cruz, Calif.) was used as the primary antibody. Ponceau S staining was used for monitoring protein loading and transfer efficiency (Id).

[6] = test system: androgen receptor; experiment: Transient transfection luciferase reporter assay, PSA promoter, in LNCaP cells; type: cell-based, human; conditions: 1 nM Mib, 24 hrs, FIG. 3A
Source text: as §3, §4

[7] = test system: androgen receptor; experiment: Transient transfection luciferase reporter assay, 3 copies of hK2 ARE, in LNCaP cells; type: cell-based, human; conditions: minimum SV40 promoter and 3 copies of hK2 ARE, 1 nM Mib, 24 hrs, FIG. 3B
Source text: as §3, §4

[8] = test system: hK2; experiment: hK2 quantification in spent media of LNCaP cells (Mayo's hK2 assay); type: cell-based, human; conditions: 1 nM Mib, five days, normalized to MTS; FIG. 2B
Procedure: as §1, §2

Row | SMILES | LNCaP cell proliferation ([1]; presence of Mib (1 nM), FIG. 1) | androgen receptor promoter activity ([2]; POH at 1 μM) | androgen receptor promoter activity ([2]; POH below 1 μM) | level of c-jun [3] | accumulation of PSA protein in LNCaP cells stimulated by androgens [4] | androgen-enhanced androgen receptor protein levels [5] | androgenic inducibility of the PSA promoter (luciferase reporter) [6] | ARE-regulated luciferase activity [7] | accumulation of hK2 protein in LNCaP cells stimulated by androgens [8] | proliferation of LNCaP cells ([1]; POH in the presence of 1 nM Mib, p<0.05, FIG. 1)
1 | C[C@@H]1CC2=CC(=O)CC[C@@H]2[C@H]2CC[C@@]3(C)[C@@H](CC[C@]3(C)O)[C@@H]21 [Mib, mibolerone] | significantly increased | – | – | – | – | – | – | – | – | –
2 | C=C(C)[C@@H]1CC=C(CO)CC1 [POH, Perillyl alcohol] | – | drastically reduced | not affected | up to 3.5 times the control levels | inhibited | not affected | significantly reduced | inhibited | inhibited | significantly inhibited
